Data taken from a melting point compilation (Tetko et al.; mined from patent text by program, amines drawn as free bases though some values may be those of a salt).

Row | Structure (SMILES) | melting point [°C]
1 | CCCC1=NN(c2ccc(S(=O)(=O)NC(C)(C)C)cc2)C(=O)C1=CNc1ccccc1OCC | 254
2 | O=C1c2ccccc2C(=O)N1CCC(=O)N1c2ccccc2N(Cc2ccccc2)C(=O)[C@H]2CCC[C@H]21 (relative stereo) | 242 to 244
3 | CC(=O)C(=Cc1cccc([N+](=O)[O-])c1)P(=O)(OCC(C)C)OCC(C)C | 81 to 82
4 | CC(=O)Oc1ccc(-c2c(CBr)c3ccc(F)cc3oc2=O)c(OC(C)=O)c1 | 230 to 231
5 | CNC(=O)c1cc2c(nc(C)n2C)c(O)c1CC[C@@H](O)c1ccccc1 | 247 to 249
6 | C[C@H]1CN(c2c(F)c(N)c3c(=O)c(C(=O)O)cn(C4CC4)c3c2F)C[C@H]1CN (relative stereo) | 221 to 223
7 | NC(C=C(CP(=O)(O)O)c1ccccc1)C(=O)O (configuration not stated) | 230 to 233
8 | CC(C)(O)CC(O)=C(C#N)CC(=O)Nc1ccccc1 | 103
9 | O=[N+]([O-])c1ccc(SNc2nccs2)c(C(Cl)(Cl)Cl)c1 | 165
10 | COCS(=O)(=O)c1ccc(C=C(C)c2ccc3c(c2)C(C)(C)CCC3(C)C)cc1 | 154 to 156
11 | CC(C)(C)OC(=O)NCc1nc(C(=O)O)cs1 | 185
12 | COC(=O)C(C)(C)c1cn2nc(Cl)ccc2n1 | 92 to 93
13 | O=C1N(Cc2nc(C(F)(F)F)cs2)c2ccccc2C12COc1cc3c(cc12)OCCO3 (configuration not stated) | 169 to 170
14 | CCCC(=O)Nc1ccc(-c2cc(C(C)(C)C)c(O)c(C(C)(C)C)c2)cc1 | 180 to 181
15 | Cc1ccc(C)n1NC(=O)COc1ccc(C2=NNC(=O)NC2C)cc1Cl (configuration not stated) | 189 to 190
16 | COC(=O)c1cccc(Cn2c(=O)c(=O)n(Cc3cccc(C(=O)O)c3)c3ccc([N+](=O)[O-])cc32)c1 | 238 to 240
17 | COC(=O)C=Cc1ccc(Cl)c(Cl)c1 | 114 to 115
18 | O=C1c2ccccc2-c2c1c1cc3c(cc1c(=O)n2CCCNS(=O)(=O)c1ccccc1)OCO3 | 225 to 226
19 | O=C(O)C1c2ccccc2Cc2ccccc21 | 139
20 | C=CCN1C2CCC1C1CCC2N1C(c1ccc(C(=O)N(CC)CC)cc1)c1cccc(OC)c1 (configuration not stated) | 99 to 101
21 | O=C(O)c1c2c(nc3ccc(F)cc13)-c1ccc(-c3ccccc3)cc1CC2 | 309 to 310
22 | O=[N+]([O-])c1ccccc1Sc1ccc(Cl)cc1 | 91 to 93
23 | CCCc1nn(-c2ccc(C(F)(F)F)cn2)cc1CCCOc1c(C)cnn1CC(=O)O | 145 to 146
24 | N#CC(Cl)Cc1ccc(Cl)cc1C(=O)c1ccccc1F (configuration not stated) | 94 to 95

Row | Structure (SMILES) | melting point [°C]
25 | CCOC(=O)c1cn(-c2csnn2)c2cc(F)c(F)cc2c1=O | 198 to 203
26 | NC(=O)C1CCC(NC(=O)NCc2ccc3c(c2)CN(C2CCC(=O)NC2=O)C3=O)CC1 (configuration not stated) | 195 to 197
27 | CCCCCCCC(=N)NC(=S)Nc1ccc(Cl)cc1 | 98 to 99
28 | CCOC(=O)c1cc2ccc(C)cc2o1 | 35 to 42
29 | Sc1ccc2ccncc2c1Cl | 118 to 122
30 | Cc1c(C)c2c(c(C)c1NC(=O)CCCO)C(c1ccc(C(C)C)cc1)CO2 (configuration not stated) | 156 to 157
31 | O=C1CCC(C=Cc2ccc(-n3ccnc3)cc2)=NN1 | 230 to 231
32 | COc1cc2c(cc1O)C(Cc1c(OC)cccc1[N+](=O)[O-])N(C)CC2 (configuration not stated) | 163 to 165
33 | Fc1cccc(F)c1C1=NCC(=S)Nc2ccc(Cl)cc21 | 222 to 224
34 | CC(C)CCNC(=O)c1ccc2c(c1)N(C(C)CN(C)C)c1ccccc1S2 (racemic) | 105
35 | O=C1NC(=O)C(c2cn3c4c(cccc24)C(O)CC3)=C1c1c[nH]c2ccccc12 (configuration not stated) | 165 to 168
36 | Cc1ccc(S(=O)(=O)N2[C@@H](CCn3cccn3)CC[C@H]2c2ccc(F)cc2)cc1 (racemic) | 121
37 | FC(F)(F)c1cccc(OC(c2ccc(Cl)cc2)c2ncco2)c1 (configuration not stated) | 66 to 67
38 | CC1(C)CCC(C)(C)c2cc(C3(c4ccc(C(=O)O)cc4)OCCO3)c(OCc3ccccc3)cc21 | 222 to 228
39 | CN1CCC[C@H]1Cc1cc2cccnc2[nH]1 | 130 to 131
40 | CNc1ccnc(C2=Cc3ccccc3CC2)c1 | 106 to 107
41 | O=C(O)c1cn(C2CC2)c2c(F)c(F)c(F)c(F)c2c1=O | 179 to 180
42 | CN(C)C(=O)n1nc(C(C)(C)C)nc1SC(NS(C)(=O)=O)NS(C)(=O)=O | 83 to 85
43 | COc1cc(C(=O)c2nc3ccccc3[nH]2)cc([N+](=O)[O-])c1OC | 212 to 213
44 | c1ccc(Oc2noc(-c3ccccc3)n2)cc1 | 62
45 | CC(=O)C1=C(C)c2ccccc2C1(C)C | 104 to 105
46 | CC(C)(C)c1cc(C=O)c(O)c(Br)c1Cl | 92 to 94
47 | CC(C)(C)c1cc(C=C2CC(C)(C)N(C(N)=O)C2=O)cc(C(C)(C)C)c1O | 200 to 203
48 | COc1cc(OC)nc(Oc2cccc3cc(C)oc(=O)c23)n1 | 188 to 190

Row | Structure (SMILES) | melting point [°C]
49 | COc1c(C)cnc(C(Br)C#N)c1C (configuration not stated) | 56 to 57
50 | CC=C(NC(=O)CC(C)C)C(=O)O | 172 to 174
51 | O=[N+]([O-])c1ccc(-c2cc3c(O)ncnc3o2)cc1 | > 350
52 | CCOC1CN(Cc2cc(OC)c(OC)c(OC)c2)Cc2cc(OC)c(O)cc21 (configuration not stated) | 94 to 96
53 | CCOc1cc2c(Cl)cc(C)nc2nc1C | 144 to 147
54 | OC(CCl)c1ccc(-c2ccc(SC(F)F)cc2)cc1 (configuration not stated) | 66 to 68
55 | CCc1ccc(Nc2c(-c3nnc(CC)o3)ccc(F)c2F)c(F)c1 | 82 to 83
56 | CC(=O)OCC1OC(n2cc(I)c(=O)[nH]c2=O)C(OC(C)=O)C1OC(C)=O (configuration not stated) | 175 to 179
57 | Cc1ccc2[nH]c(=O)cc(CCO)c2c1 | 252 to 255
58 | COc1ccc(-c2n[nH]c(=O)cc2-c2ccc(OC)c(F)c2)cc1 | 213
59 | C/C(=C(\C#N)C(N)=S)N1CCC(Cc2ccccc2)CC1 | 151 to 154
60 | Cc1c(Br)ccc([N+](=O)[O-])c1C#N | 116 to 118
61 | O=C(OCc1ccccc1)N1CCC(c2[nH]c(=O)c3ccccc3c2-c2ccccc2)CC1 | 276 to 278
62 | COc1ccc2[nH]c(SCc3nccc(SCc4ccco4)c3C)nc2c1 | 106 to 108
63 | CCCCc1oc2ccccc2c1C(=O)N(Cc1ccccc1)Cc1ccc2cc(O)ccc2c1 | 160 to 164
64 | CCCc1nn(C)c2c(=O)[nH]c(Cc3ccc(NC(=O)/C=C/OCC)cc3)nc12 | 241 to 243
65 | OCCN(c1ccccc1)c1ccccc1 | 109 to 110
66 | Cc1cc(Oc2ccc(Cl)c(C(F)(F)F)c2)c(C)cc1N=CNC#N | 111 to 114
67 | CCCn1c(=O)n(-c2ccc3c(c2)OCO3)c2ncc(N)cc21 | 177 to 178
68 | Oc1ccc(-c2ncc3ncc(-c4ccc(C(F)(F)F)cc4)cc3n2)cc1 | 203 to 204
69 | CC(=O)Nc1nc(CCc2ccc(CCNC(=N)N)s2)cs1 | 122 to 123
70 | COc1cc(N(C)C)nc(NC(=O)NS(=O)(=O)c2ccccc2CCC(F)(F)F)n1 | 183 to 184
71 | COc1ccc(C(=O)c2c(CBr)n(C(C)=O)c(=O)n2C(C)=O)cc1 | 135 to 136
72 | Cn1nc(-c2ccc(Cl)cc2F)cc1O | 204
